These results are taken from patent publication US10865376B2, “Method for detecting the presence or absence of biological particles” (bioMérieux, priority 2014, dated 2020).

What all share (type): cell-based
The test system of test [1] is Staphylococcus aureus (ATCC 25923). Put plainly: Minimum inhibitory concentration calculated from the normed representation (ombroscopy image plus ruler). To be noted: starting from six hours, FIG. 28. The text has this:
(§1) The impregnated support 5 is for example also a slender strip, of overall rectangular conformation. The strip comprises for example a concentration of chemical agent 3 that follows an increasing concentration gradient from one short edge to an opposite short edge of the strip. In FIG. 19, the fifth processing step 105 comprises a second phase X2 of taking a control photograph 7' of a ruler 15 arranged on the culture medium 2 contained in the Petri dish 4, the second phase X2 also being carried out by the detecting device 12. Then the fifth processing step 105 comprises a third phase X3 of superimposing the image 7 and the control photograph 7' and more particularly of their respective receiving zone R to form a normed representation 7'' of the culture medium 2. In FIG. 20, the fifth processing step 105 comprises a fourth phase X4 of localization of a reference mark 16 of the ruler 15. In the example shown, the reference mark 16 is the indication “256” on the ruler 15, and the reference mark 16 may consist of some other and relatively any indication. The reference mark 16 comprises Cartesian coordinates […] and […]. In FIGS. 21 to 25, the fifth processing step 105 comprises a fifth phase X5 of processing the normed representation 7''. In FIG. 21, the fifth phase X5 comprises at least one smoothing operation for homogenizing the normed representation 7''. […]

For test [2], the system named is Escherichia coli (ATCC 25922). Described as above. To be noted: starting from six hours, FIGS. 26 and 27.
Source text: as §1

The test system of test [3] is Escherichia coli (ATCC 25922). The test is described as follows: Detection of the inhibition zone around a support impregnated with antibiotic, by micro-ombroscopy. Particulars: micro-ombroscopy (FIG. 10 device), detection time TX of two hours. The text has this: (§2) In general terms, referring to FIG. 2, the method of detection 100 of the present invention comprises a first step 101 of seeding the culture medium 2 with an extract of biological particles 1. The extract of biological particles 1 is for example a raw sample of biological particles 1 taken from the patient directly. In this case the raw sample undergoes a preculture phase for isolating strains of biological particles 1 present, in the case of a sample comprising a diversity of biological particles 1, and increase of the biological particles 1 selected and isolated. […] The sample of biological particles 1 has a biomass of biological particles 1 that is sufficient to be analyzed validly, such as a standard at a concentration of 0.5 McFarland. The extract of biological particles 1 is for example from urine, blood, cerebrospinal fluid or a similar biological fluid.
The culture medium 2 is for example flooded with the extract of biological particles 1, or the culture medium 2 is seeded with biological particles 1 by swabbing, or the culture medium 2 receives the biological particles by spreading them using a rake. Then, the Petri dish 4 is agitated transversely to distribute the extract of biological particles 1 as uniformly as possible on the culture medium 2, and then any supernatant is removed from the Petri dish 4. […]

Test [4] deals with Escherichia coli (ATCC 35218). The test is described as follows: Minimum inhibitory concentration / inhibition zone from the normed representation (ombroscopy image plus ruler).
Source text: as §1

Test [5] relates to Escherichia coli (ATCC 35218). The test is described as follows: Detection of the inhibition zone around a support impregnated with antibiotic, by ombroscopy / micro-ombroscopy.
Source text: as §2
The culture medium 2 is for example flooded with the extract of biological particles 1, or the culture medium 2 is seeded with biological particles 1 by swabbing, or the culture medium 2 receives the biological particles by spreading them using a rake. Then, the Petri dish 4 is agitated transversely to distribute the extract of biological particles 1 as uniformly as possible on the culture medium 2, and then any supernatant is removed from the Petri dish 4. The first step of seeding 101 may have features different from those described above without departing from the rules of the present invention.
The method of detection 100 then comprises a second step 102 of receiving at least one dose of the chemical agent 3 at the initial time point T0, for example starting from placement of at least one impregnated support 5 inoculated with the chemical agent 3 on a receiving zone R of the impregnated support 5 on the culture medium 2.
The impregnated support 5 is for example a disk impregnated with the chemical agent 3, the disk having the overall conformation of a thin slice of a cylinder. The disk comprises an amount of chemical agent 3 that is homogeneous overall in its volume. […]

Consider `CC1(C)S[C@@H]2[C@H](NC(=O)[C@H](N)c3ccccc3)C(=O)N2[C@H]1C(=O)O` [ampicillin], for which the “response characterized from the calculated minimum concentration MIC” value in test [1] and in test [2] was “sensitive” in each case. Moreover, the “response of the biological particles to the chemical agent (sensitivity / resistance)” value is “sensitivity” in test [3]; “resistance” in test [5] (micro-ombroscopy (FIG. 10 device), detection time TX of four hours); “resistance” in test [5] (ombroscopy (FIG. 9 device), identifiable starting from four hours, images up to twenty-four hours). Besides, in test [4] (FIG. 29, based on absence of a first inhibition zone Z1), the “response from the normed representation” value was “resistant”. Further, in test [4] (FIG. 30), the “response from the normed representations, according to EUCAST” value is on record as “resistant”. Moreover, the “presence or absence of inhibition zone” value in test [5] (ombroscopy (FIG. 9 device), starting from four hours) is “no inhibition zone is detected”.
